Literature values as cited in patent publication US20210120811A1, “AQUEOUS CAPSULE SUSPENSION CONCENTRATES CONTAINING A HERBICIDAL SAFENER AND A PESTICIDAL ACTIVE SUBSTANCE” (priority 2018, published 2021).

In the case of `CC1(C)CON(Cc2ccc(Cl)cc2Cl)C1=O` [DCPMI, 2-[(2,4-dichlorophenyl)methyl]-4,4′-dimethyl-3-isoxazolidinone], the water solubility is given as 39.5 ppm.
